Data set [1] relates to blood flow in the optic nerve head. Nature of the data set: Blood flow in the optic nerve head by laser speckle technique (rate of change of NB value). It counts as in vivo. To be noted: rabbit, i.v. The method, then:
The optic nerve head circulation improving activity was measured by using as an index the rate of change of NB value as mentioned hereinafter.
1) Measurement of Blood Flow in the Optic Nerve Head by Laser Speckle Technique
(§1) Male New Zealand White rabbits (weighing 2.3-3.1 kg) were housed in an OSHIDA-type solid box and the left auricula was locally anesthetized with Xylocaine Spray (trademark, manufactured by Fujisawa Pharmaceutical) and Xylocaine Jelly (trademark, manufactured by Fujisawa Pharmaceutical), and a catheter (Polyethylene Tube SP28, manufactured by Natsume) were inserted into the post auricular artery for measuring the blood pressure and the heart rate, and the blood pressure and the heart rate were continuously recorded with a recorder (WT-645G, manufactured by Nihon-Koden). Under the local anesthesia, a catheter for administering the test drug (Polyethylene Tube SP31, manufactured by Natsume) was likewise inserted into the right post auricular vein of the animal.
The blood flow of the optic nerve head was measured by selecting a portion having no surface blood vessel at the right optic nerve head [0.42×0.42 mm (field angle 30°) with an eyegrounds circulation analyzer (Laser speckle circulation analyzer-II: LSCA-II), measuring the mean value of the quantitative index of blurring in whole field (100×100) [NB value (normalized blur value)], and calculating the rate of change (%) of the NB value by the following equation: [formula]
By the way, the test drug was prepared by adding a 20% dimethylacetamide solution containing 2% tartaric acid to a drug to be tested so as to adjust the ad ministration volume thereof to 0.1 ml/kg and dissolving the mixture by adding thereto a hot water.
The change of the value between the data after administration of drug or vehicle and the data before the administration of drug or vehicle was determined, and for each item, the mean values and standard deviation in six animals in each test were determined, and the results are shown in the accompanying FIG. 1 to FIG. 8. […]

Another data set relates to intraocular pressure. Nature of the data set: Measurement of intraocular pressure in rabbits (pneumatonometer). The class given is in vivo. To be noted: rabbit; 0.003, 0.01 and 0.03 mg/kg, i.v. As to the method: 2) Measurement of Intraocular Pressure The intraocular pressure was measured on the left eye at each time when the above NB values were measured after the administration of drug or vehicle (excepting 5 minutes after administration, the intraocular pressure was not measured) after dropping a 0.4% solution of Benoxil (trademark, manufactured by Santen Pharmaceutical) by using a calibrated pneumatonometer (Alcon Application Pneumatonograph, manufactured by Nippon Alcon). The change of the value between the data after administration of drug or vehicle and the data before the administration of drug or vehicle was determined, and for each item, the mean values and standard deviation in six animals in each test were determined, and the results are shown in the accompanying FIG. 1 to FIG. 8. The significant test of the test drug was done by t-test at each time of measurement compared to the data in the control group administered with vehicle. The significant standards are indicated separately in the group of less than 5% and the group of less than 1%.

The test system of data set [2] is blood pressure and heart rate. Nature of the data set: Mean blood pressure and heart rate in rabbits (post auricular artery catheter). It counts as in vivo. To be noted: rabbit.
Source text: as §1
The change of the value between the data after administration of drug or vehicle and the data before the administration of drug or vehicle was determined, and for each item, the mean values and standard deviation in six animals in each test were determined, and the results are shown in the accompanying FIG. 1 to FIG. 8. The significant test of the test drug was done by t-test at each time of measurement compared to the data in the control group administered with vehicle. The significant standards are indicated separately in the group of less than 5% and the group of less than 1%.

Data set [3] relates to blood flow in the optic nerve head. To be noted: literature: Nichi-Gan Kaishi Vol. 100, No. 12, p. 923, 1996; cited from earlier work.
Data set [4] in a line: Measurement of plasma concentration of drug in rabbit (gas chromatography). It counts as in vivo. To be noted: Lomerizine hydrochloride 0.03 mg/kg, i.v. As to the method:
Under the same conditions as in the above Example 1, the plasma concentration of Lomerizine in the groups administered with Lomerizine hydrochloride (0.03 mg/kg, i.v.) 5, 15, 30 and 60 minutes after the administration of the drug as follows.
Male New Zealand White rabbits (weighing 2.5-3.5 kg, 3 animals per group) were placed in an OSHIDA-type solid box. A solution of Lomerizine hydrochloride (in an amount so as to be 0.03 mg/kg) in a 20% dimethylacetamide containing 2% tartaric acid was prepared and was administered to the right post auricular vein of the animals. Thereafter, blood sampling was done from left post auricular vein 5, 15, 30 and 60 minutes after the administration of test drug. The collected blood sample was centrifuged (4° C., 3000 rpm×10 minutes) to obtain a plasma sample, and then the amount of Lomerizine in the plasma was measured by gas chromatography.
The gas chromatography was carried out under the following conditions:
GC-14B type gas chromatograph (manufactured by Shimadzu Corporation)
FTD Detector (Shimadzu FTD-8, manufactured by Shimadzu Corporation)
Conditions for Measurement:
Column: Shimadzu CBP1-M25-025 (25m×0.2mm, thickness of membrane: 0.25 μm)
Injection port temperature: 310° C.
Column temperature: 285° C.
Detector temperature: 310° C.
Carrier gas: Helium (2.30 kg/m^2)
Make up gas: Helium (flow rate: 40 ml/minute)
H2 flow rate: 3.8 ml/minute
Air flow rate: 160 ml/minute

Data set [5] deals with side effects (objective and subjective symptoms). Nature of the data set: Side effect-manifestation in aged and younger persons. To be noted: human. The class given is in vivo.
Where [6] appears, read: 0.03 mg/kg, i.v., 15 minutes after the administration.

The source of these data is patent publication US6387910B1, “Drug of improving optic nerve head circulation disorder” (Akzo Nobel N.V., priority 1998, dated 2002).

For `COC(=O)C1=C(C#N)NC(C)=C(C(=O)OC(C)C)C1c1cccc([N+](=O)[O-])c1` (centres unmarked) [Nilvadipine], the “increasing activity of blood flow in the optic nerve head (rate of change of NB value) vs vehicle” value in data set [1] (0.03 mg/kg, 30 minutes after the administration) is reported as “significant increasing activity”; in data set [1] (0.003, 0.01 and 0.03 mg/kg, significant 5 minutes after the administration) it was “higher increasing activity”; in data set [1] (0.003 and 0.03 mg/kg, 15 minutes after the administration) it was “significant increasing activity”. Besides, the “action on the intraocular pressure” value with intraocular pressure is given as “no clear action”. For the same compound, the “heart rate vs vehicle” value is listed as “significant increase” in data set [2] (setting [6]); “significant increase” in data set [2] (0.01 and 0.03 mg/kg, i.v., 30 minutes after the administration); “significant increase” in data set [2] (all groups (0.003, 0.01 and 0.03 mg/kg, i.v.), 5 minutes after the administration). Moreover, the “hypotensive activity (mean blood pressure) vs vehicle” value in data set [2] (setting [6]) is listed as “significant hypotensive activity”; in data set [2] (0.01 and 0.03 mg/kg, i.v., 5 minutes after the administration), “significant hypotensive activity”. The “action on the optic nerve head (blood flow)” value in data set [3] was “an activity of increasing blood flow”.
Consider Lomerizine, for which the “Concentration of Lomerizine in Plasma, Mean ± Standard deviation” value turned out to be 19.8 ± 6.5 ng/mL in data set [4] (5 minutes after administration), 8.1 ± 2.4 ng/mL in data set [4] (15 minutes after administration) and 4.9 ± 2.4 ng/mL in data set [4] (30 minutes after administration). Further, the “side effect-manifestation in aged persons (65-85 years old) compared with younger persons (15-64 years old)” value in data set [5] was “not so different”.
